Assay results from patent US20230391772A1, “METHODS AND COMPOSITIONS FOR TARGETED PROTEIN DEGRADATION” (Ranok Therapeutics (Hangzhou) Co. Ltd., priority 2020, published 2023).

Tests used:
HSP90a protein = target: T1, HSP90a protein (Homo sapiens, UniProt P07900); experiment: HSP90α-binding fluorescent polarization (FP) assay, BODIPY-labeled RNK04010 probe; conditions: FP competition with RNK04010 (BODIPY-labeled), 5 nM, 300 min at 25° C.
T1 construct: purchased BPS Bioscience 50298
Method: HSP90α-Binding Fluorescent Polarization (FP) Assay
Binding of test compounds to HSP90a protein was measured by fluorescent polarization (FP) using the HSP90a (N-terminal) Assay Kit (BPS Bioscience, #50298), following the manufacturer's instructions, except as noted. Fluorescently labeled HSP90-binding compounds, either the provided FITC-geldanamycin (5 nM final concentration) or RNK04010, a triazolone-based HSP90 binding small molecule labeled with BODIPY through a piperizine-phenyl linker (5 nM final concentration) were employed. A 2.5-fold serial dilution of each test compound ranging from 20 μM to 5.2 nM was assayed for binding to HSP90a. After the final step of adding HSP90a protein to each assay well, plates were mixed by brief shaking, incubated at 25° C. for 120 min for FITC-geldanamycin or 300 min for RNK04010, and fluorescence was measured using a PerkinElmer EnVision Plate Reader.

[1] = test system: MIA PaCa-2 human pancreatic carcinoma; experiment: MIA PaCa-2 CCK-8 proliferation assay; assay type: cell-based; conditions: Homo sapiens, MIA PaCa-2, 72 h, MIA PaCa-2 cells
Method: The following cancer cell lines were employed: BT-474 human breast carcinoma (ATCC, #HTB-20); MIA PaCa-2 human pancreatic carcinoma [2 copies KRAS(G12C)](ATCC, #CRL-1420); NCI-H23 human non-small cell lung cancer [1 copy KRAS(G12C)](ATCC, #CRL-5800); NCI-H358 human non-small cell lung cancer [1 copy KRAS(G12C)](ATCC, #CRL-5807); LU65A human lung carcinoma (Pharmaron, Beijing, China). Cell lines were cultured essentially according to ATCC and Pharmaron recommendations.
Cancer Cell Line Proliferation (CCK-8) Assays
3-fold serial dilutions of each test compound were prepared ranging from 20 μM to 1.02 nM.
% Inhibition=100−(D−B)/(S−B)*100%. • S: Absorbance of cells treated with DMSO • D: Absorbance of compound-treated cells • B: Absorbance of medium with DMSO without cells

KRAS(G12C) = KRAS(G12C) (Homo sapiens, UniProt P01116, G12C); experiment: KRAS(G12C)/SOS1 homogeneous time-resolved fluorescence (HTRF) assay; parameters: purchased Cisbio 63ADK000CB16PEG; conditions: absence of GTP, 4° C. for 3 hr, read-out: KRAS (G12C) binding
KRAS(G12C), sequence (P01116 1-188 isoform P01116-2 G12C): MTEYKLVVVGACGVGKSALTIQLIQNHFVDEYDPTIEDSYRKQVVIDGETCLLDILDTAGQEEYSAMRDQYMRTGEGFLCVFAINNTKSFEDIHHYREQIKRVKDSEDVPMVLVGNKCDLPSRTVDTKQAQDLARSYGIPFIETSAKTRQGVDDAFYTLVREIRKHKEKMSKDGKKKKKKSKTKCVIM
Method: KRAS(G12C)/SOS1 Homogeneous Time-Resolved Fluorescence (HTRF) Assay
Binding of test compounds to KRAS(G12C) protein, which in turn blocks KRAS(G12C) interaction with the SOS1 protein, was measured in the absences of GTP by homogeneous time-resolved fluorescence (HTRF) using the KRAS-G12C/SOS1 Binding Assay Kit (Cisbio, #63ADK000CB16PEG), following the manufacturer's instructions, except as noted. 3-fold serial dilutions of each test compound were prepared ranging from […] to 1.02 nM. The test compound was mixed and incubated with reaction components, incubated in a sealed plate at 4° C. for 3 hr and fluorescence was measured using a PerkinElmer Envision plate reader.

| Compound | IC50 (HSP90a protein) [nM] | EC50 [1] [nM] | IC50 (KRAS(G12C)) [nM] |
| --- | --- | --- | --- |
| C=CC(=O)N1CCN(c2nc(OC[C@@H]3C[C@H](C(=O)N4CCN(Cc5ccc(-n6c(C(=O)NCCN7CCN(S(C)(=O)=O)CC7)nnc6-c6cc(C(C)C)c(O)cc6O)cc5)CC4)CN3C)nc3c2CCN(c2cccc4cccc(Cl)c24)C3)C[C@@H]1CC#N [Compound 344, 4-[4-({4-[(3S,5S)-5-({[7-(8-chloronaphthalen-1-yl)-4-[(3S)-3-(cyanomethyl)-4-(pr-op-2-enoyl)piperazin-1-yl]-5H,6H,8H-pyrido[3,4-d]pyrimidin-2-yl]oxy}methyl)-1-methylpyrrolidine-3-carbonyl]piperazin-1-yl}methyl)phenyl]-5-(2,4-dihydroxy-5-isopropylphenyl)-N-[2-(4-methanesulfonylpiperazin-1-yl)ethyl]-1,2,4-triazole-3-carboxamide] | < 100 | 100 to 1000 | < 100 |
| C=CC(=O)N1CCN(c2nc(OC[C@@H]3C[C@H](N4CCC(C(=O)N5CCN(Cc6ccc(-n7c(C(=O)NCCN8CCN(S(C)(=O)=O)CC8)nnc7-c7cc(C(C)C)c(O)cc7O)cc6)CC5)CC4)CN3C)nc3c2CCN(c2cccc4cccc(Cl)c24)C3)C[C@@H]1CC#N [Compound 327, 4-{4-[(4-{1-[(3S,5S)-5-({[7-(8-chloronaphthalen-1-yl)-4-[(3S)-3-(cyanomethyl)-4-(prop-2-enoyl)piperazin-1-yl]-5H,6H,8H-pyrido[3,4-d]pyrimidin-2-yl]oxy}methyl)-1-methylpyrrolidin-3-yl]piperidine-4-carbonyl}piperazin-1-yl)methyl]phenyl}-5-(2,4-dihydroxy-5-isopropylphenyl)-N-[2-(4-methanesulfonylpiperazin-1-yl)ethyl]-1,2,4-triazole-3-carboxamide] | < 100 | 100 to 1000 | < 100 |
| C=CC(=O)N1CCN(c2nc(OC[C@@H]3CC[C@H](CN4CCN(C(=O)C5CCN(Cc6ccc(-n7c(C(=O)NCC(F)(F)F)nnc7-c7cc(C(C)C)c(O)cc7O)cc6)CC5)CC4)N3C)nc3c2CCN(c2cccc4cccc(Cl)c24)C3)C[C@@H]1CC#N [Compound 310, 4-(4-{[4-(4-{[(2R,5S)-5-({[7-(8-chloronaphthalen-1-yl)-4-[(3S)-3-(cyanomethyl)-4-(prop-2-enoyl)piperazin-1-yl]-5H,6H,8H-pyrido[3,4-d]pyrimidin-2-yl]oxy}methyl)-1-methylpyrrolidin-2-yl]methyl}piperazine-1-carbonyl)piperidin-1-yl]methyl}phenyl)-5-(2,4-dihydroxy-5-isopropylphenyl)-N-(2,2,2-trifluoroethyl)-1,2,4-triazole-3-carboxamide] | < 100 | < 100 | < 100 |
| C=CC(=O)N1CCN(c2nc(OC[C@@H]3C[C@H](NC(=O)C4CCN(C(=O)C5CCN(Cc6ccc(-n7c(O)nnc7-c7cc(C)c(O)cc7O)cc6)CC5)CC4)CN3C)nc3c2CCN(c2cccc4cccc(Cl)c24)C3)C[C@@H]1CC#N [Compound 312, N-[(3S,5S)-5-({[7-(8-chloronaphthalen-1-yl)-4-[(3S)-3-(cyanomethyl)-4-(prop-2-e-noyl)piperazin-1-yl]-5H,6H,8H-pyrido[3,4-d]pyrimidin-2-yl]oxy}methyl)-1-meth-ylpyrrolidin-3-yl]-1-[1-({4-[3-(2,4-dihydroxy-5-methylphenyl)-5-hydroxy-1,2,4-triazol-4-yl]phenyl}methyl)piperidine-4-carbonyl]piperidine-4-carboxamide] | < 100 | > 1000 | < 100 |
| C=CC(=O)N1CCN(c2nc(OC[C@@H]3C[C@@H](OCC(=O)N4CCC(CN5CCN(Cc6ccc(-n7c(C(=O)NCC(F)(F)F)nnc7-c7cc(CC)c(O)cc7O)cc6)CC5)CC4)CN3C)nc3c2CCN(c2cccc4cccc(Cl)c24)C3)C[C@@H]1CC#N [Compound 300, 4-(4-((4-((1-(2-(((3R,5S)-5-(((4-((S)-4-acryloyl-3-(cyanomethyl)piperazin-1-yl)-7-(8-chloronaphthalen-1-yl)-5,6,7,8-tetrahydropyrido[3,4-d]pyrimidin-2-yl)oxy)methyl)-1-methylpyrrolidin-3-yl)oxy)acetyl)piperidin-4-yl)methyl)piperazin-1-yl)methyl)phenyl)-5-(5-ethyl-2,4-dihydroxyphenyl)-N-(2,2,2-trifluoroethyl)-4H-1,2,4-triazole-3-carboxamide] | < 100 | < 100 | < 100 |
| C=CC(=O)N1CCN(c2nc(OCCN3CCC4(CC3)CCN(Cc3cc(C(C)C)c(O)cc3O)CC4)nc3c2CCN(c2cccc4cccc(Cl)c24)C3)C[C@@H]1CC#N [Compound 217, (S)-2-(1-acryloyl-4-(7-(8-chloronaphthalen-1-yl)-2-(2-(9-(2,4-dihydroxy-5-isopropylbenzyl)-3,9-diazaspiro[5.5]undecan-3-yl)ethoxy)-5,6,7,8-tetrahydropyrido[3,4-d]pyrimidin-4-yl)piperazin-2-yl)acetonitrile] | 100 to 1000 | > 1000 | < 100 |

More lines, now with the values ahead:

| IC50 (HSP90a protein) [nM] | EC50 [1] [nM] | IC50 (KRAS(G12C)) [nM] | Compound |
| --- | --- | --- | --- |
| < 100 | < 100 | < 100 | C=CC(=O)N1CCN(c2nc(OCCN3CCC4(CC3)CCN(C(=O)C3CCN(Cc5ccc(-n6c(C(N)=O)nnc6-c6cc(C(C)C)c(O)cc6O)cc5)CC3)CC4)nc3c2CCN(c2cccc4cccc(Cl)c24)C3)C[C@@H]1CC#N [Compound 210, (S)-4-(4-((4-(9-(2-((4-(4-acryloyl-3-(cyanomethyl)piperazin-1-yl)-7-(8-chloronaphthalen-1-yl)-5,6,7,8-tetrahydropyrido[3,4-d]pyrimidin-2-yl)oxy)ethyl)-3,9-diazaspiro[5.5]undecane-3-carbonyl)piperidin-1-yl)methyl)phenyl)-5-(2,4-dihydroxy-5-isopropylphenyl)-4H-1,2,4-triazole-3-carboxamide] |
| < 100 | < 100 | < 100 | C=CC(=O)N1CCN(c2nc(OCCN3CCC4(CC3)CCN(C(=O)C3CCN(Cc5ccc(-n6c(C(=O)NCC(F)(F)F)nnc6-c6cc(C(C)C)c(O)cc6O)cc5)CC3)CC4)nc3c2CCN(c2cccc4cccc(Cl)c24)C3)C[C@@H]1CC#N [Compound 209, (S)-4-(4-((4-(9-(2-((4-(4-acryloyl-3-(cyanomethyl)piperazin-1-yl)-7-(8-chloronaphthalen-1-yl)-5,6,7,8-tetrahydropyrido[3,4-d]pyrimidin-2-yl)oxy)ethyl)-3,9-diazaspiro[5.5]undecane-3-carbonyl)piperidin-1-yl)methyl)phenyl)-5-(2,4-dihydroxy-5-isopropylphenyl)-N-(2,2,2-trifluoroethyl)-4H-1,2,4-triazole-3-carboxamide] |
| – | 100 to 1000 | < 100 | C=CC(=O)N1CCN(c2nc(OCCN3CCC(C(=O)N4CCN(CCNC(=O)c5nnc(-c6cc(C(C)C)c(O)cc6O)n5-c5ccccc5)CC4)CC3)nc3c2CCN(c2cccc4cccc(Cl)c24)C3)C[C@@H]1CC#N [Compound 243, (S)—N-(2-(4-(1-(2-((4-(4-acryloyl-3-(cyanomethyl)piperazin-1-yl)-7-(8-chloronaphthalen-1-yl)-5,6,7,8-tetrahydropyrido[3,4-d]pyrimidin-2-yl)oxy)ethyl)piperidine-4-carbonyl)piperazin-1-yl)ethyl)-5-(2,4-dihydroxy-5-isopropylphenyl)-4-phenyl-4H-1,2,4-triazole-3-carboxamide] |
